Experimental data taken from patent US12226405B2, “Compounds and compositions for inhibiting the activity of HIF2-alpha and their methods of use” (Novartis AG, priority 2020, dated 2025).

Key:
[1] = test system: HIF2α-regulated expression of the endogenous target gene hEGLN3 in 786-O cells; test: Cellular iScript assay for HIF2α (quantitative RT-PCR of hEGLN3); format: cell-based, human; details: Homo sapiens, 786-0, 48 hours incubation
How it was run: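 786-O cells were exposed to eleven 2-fold compound dilutions for 48 h at 37° C. Lysates underwent one-step TaqMan qRT-PCR for hEGLN3 with beta-actin as reference; 2^(−ΔΔCt) versus DMSO, as % of control, was fit with a four-parameter model to give IC50.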

[2] = test system: HIF2α-dependent transcription in 786-O-HRE-Luc cells; test: In vitro cellular hypoxia response element (HRE) reporter gene assay (RGA) for HIF2α; format: cell-based, human; details: Homo sapiens, 24 hours incubation
How it was run: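 Renal carcinoma cells carrying a 4×HRE-driven PEST-destabilised firefly luciferase were treated a day after seeding with eleven 2-fold compound dilutions (0.1% DMSO) for 24 h at 37° C. BrightGlo luminescence, background-subtracted and expressed as % of DMSO control, was fitted four-parametrically for IC50.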

[3] = target: HIF2α PAS-B domain (236-350, biotinylated on the N-terminus) (Homo sapiens (Human), UniProt Q99814)
HIF2α PAS-B domain (236-350, biotinylated on the N-terminus), sequence (Q99814 236-350): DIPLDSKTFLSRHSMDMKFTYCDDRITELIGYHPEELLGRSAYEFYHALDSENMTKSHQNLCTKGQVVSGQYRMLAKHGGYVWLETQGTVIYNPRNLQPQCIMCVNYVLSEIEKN
Protocol: The assay buffer contained 50 mM Tris-HCl pH7 (Sigma), 20 mM NaCl (Fluka), 0.02% BSA (Sigma), 0.005% Triton X-100 (Pierce) and 1 mM DTT (Fluka). After a 30 min incubation period, 5 μL Streptavidin PVT SPA Beads (Perkin Elmer) at 1.2 mg/mL, diluted in the buffer, were added.

| SMILES | IC50 [1] [µM] | IC50 [2] [µM] | IC50 [3] [µM] |
| --- | --- | --- | --- |
| FC(F)(F)C1=CN2C[C@@]3(CCOc4cc(C(F)(F)F)ccc43)N=C2C(Cl)=C1 [Example 53, (S)-8′-chloro-6′,7-bis(trifluoromethyl)-3′H-spiro[chroman-4,2′-imidazo[1,2-a]pyridine]] | 0.184 | 0.839 | 0.014 |
| Fc1c(OC(F)F)ccc2c1OCC[C@@]21CN2C=C(C(F)(F)F)C=C(OC(F)F)C2=N1 [Example 54, (S)-7,8′-bis(difluoromethoxy)-8-fluoro-6′-(trifluoromethyl)-3′ H-spiro[chroman-4,2′-imidazo[1,2-a]pyridine]] | 0.085 | 0.317 | 0.033 |
| FC(F)OC1=CC(C(F)(F)F)=CN2C[C@@]3(CCOc4c(C(F)F)cccc43)N=C12 [Example 55, (S)-8′-(difluoromethoxy)-8-(difluoromethyl)-6′-(trifluoromethyl)-3′H-spiro[chroman-4,2′-imidazo[1,2-a]pyridine]] | 0.115 | 7.65 | 0.009 |
| FC(F)OC1=CC(C(F)(F)F)=CN2C[C@@]3(CCOc4c3ccnc4Cl)N=C12 [Example 56, (S)-8′-chloro-8-(difluoromethoxy)-6-(trifluoromethyl)-2′,3′-dihydro-3H-spiro[imidazo[1,2-a]pyridine-2,4′-pyrano[2,3-c]pyridine]] | 0.164 | 6.66 | 0.013 |
| Fc1c(Br)ccc2c1OC[C@H](F)[C@@]21CN2C=C(C(F)(F)F)C=C(OC(F)F)C2=N1 [Example 57, (2′S,3R)-7-bromo-8′-(difluoromethoxy)-3,8-difluoro-6′-(trifluoromethyl)-3′H-spiro[chroman-4,2′-imidazo[1,2-a]pyridine]] | 0.062 | 0.196 | 0.012 |
| Fc1c(Br)ccc2c1OC[C@@H](F)[C@@]21CN2C=C(C(F)(F)F)C=C(OC(F)F)C2=N1 [Example 58, (2′S,3S)-7-bromo-8′-(difluoromethoxy)-3,8-difluoro-6′-(trifluoromethyl)-3′H-spiro[chroman-4,2′-imidazo[1,2-a]pyridine]] | 0.173 | 0.183 | 0.008 |
| FC(F)OC1=CC(C(F)(F)F)=CN2C[C@@]3(N=C12)c1ccc(Br)cc1OC[C@@H]3F [Example 59, (2′S,3R)-7-bromo-8′-(difluoromethoxy)-3-fluoro-6′-(trifluoromethyl)-3′H-spiro[chroman-4,2′-imidazo[1,2-a]pyridine]] | 0.055 | 0.073 | 0.012 |
| FC(F)OC1=CC(C(F)(F)F)=CN2C[C@@]3(N=C12)c1ccc(I)cc1OC[C@@H]3F [Example 60, (2′S,3R)-8′-(difluoromethoxy)-3-fluoro-7-iodo-6′-(trifluoromethyl)-3′H-spiro[chroman-4,2′-imidazo[1,2-a]pyridine]] | 0.027 | 0.065 | 0.006 |
| FC(F)OC1=CC(C(F)(F)F)=CN2C[C@@]3(N=C12)c1ccc(C(F)(F)F)cc1OC[C@@H]3F [Example 61, (2′S,3R)-8′-(difluoromethoxy)-3-fluoro-6′,7-bis(trifluoromethyl)-3′H-spiro[chroman-4,2′-imidazo[1,2-a]pyridine]] | 0.051 | 0.143 | 0.017 |
| Fc1cccc2c1OC[C@H](F)[C@@]21CN2C=C(C(F)(F)F)C=C(OC(F)F)C2=N1 [Example 62, (2′S,3R)-8′-(difluoromethoxy)-3,8-difluoro-6′-(trifluoromethyl)-3′H-spiro[chroman-4,2′-imidazo[1,2-a]pyridine]] | 0.102 | 0.484 | 0.013 |
| Fc1cccc2c1COC[C@@]21CN2C=C(C(F)(F)F)C=C(OC(F)F)C2=N1 [Example 63, (S)-8-(difluoromethoxy)-8′-fluoro-6-(trifluoromethyl)-3H-spiro[imidazo[1,2-a]pyridine-2,4′-isochroman]] | 0.197 | 0.465 | 0.011 |
| N#CC1=CN2C[C@@]3(CCSc4c3ccc(Cl)c4F)N=C2C(OC(F)F)=C1 [Example 64, (S)-7′-chloro-8-(difluoromethoxy)-8′-fluoro-3H-spiro[imidazo[1,2-a]pyridine-2,4′-thiochroman]-6-carbonitrile] | 0.051 | 0.236 | 0.01 |
| Fc1cccc2c1SCC[C@@]21CN2C=C(C(F)(F)F)C=C(OC(F)F)C2=N1 [Example 65, (S)-8-(difluoromethoxy)-8′-fluoro-6-(trifluoromethyl)-3H-spiro[imidazo[1,2-a]pyridine-2,4′-thiochroman]] | 0.03 | 0.114 | ≤ 0.003 |
| N#CC1=CN2C[C@@]3(CCSc4c(F)cccc43)N=C2C(OC(F)F)=C1 [Example 66, (S)-8-(difluoromethoxy)-8′-fluoro-3H-spiro[imidazo[1,2-a]pyridine-2,4′-thiochroman]-6-carbonitrile] | 0.047 | 0.385 | ≤ 0.008 |
| Fc1c(C(F)(F)F)ncc2c1SCC[C@@]21CN2C=C(C(F)(F)F)C=C(OC(F)F)C2=N1 [Example 67, (S)-8-(difluoromethoxy)-8′-fluoro-6,7′-bis(trifluoromethyl)-2′,3′-dihydro-3H-spiro[imidazo[1,2-a]pyridine-2,4′-thiopyrano[3,2-c]pyridine]] | 0.057 | 0.107 | 0.015 |
| Fc1cccc2c1OCCC[C@@]21CN2C=C(C(F)(F)F)C=C(OC(F)F)C2=N1 [Example 69, (S)-8′-(difluoromethoxy)-9-fluoro-6′-(trifluoromethyl)-3,4-dihydro-2H,3′H-spiro[benzo[b]oxepine-5,2′-imidazo[1,2-a]pyridine]] | 0.044 | 0.273 | 0.009 |
| FC(F)OC1=CC(C(F)(F)F)=CN2C[C@@]3(CCC(F)(F)c4c3ccnc4C(F)F)N=C12 [Example 70, (S)-8-(difluoromethoxy)-1′-(difluoromethyl)-8′,8′-difluoro-6-(trifluoromethyl)-7′,8′-dihydro-3H,6′H-spiro[imidazo[1,2-a]pyridine-2,5′-isoquinoline]] | 0.096 | 1.67 | 0.02 |
| N#CC1=CN2C[C@@]3(CCc4cc(I)ccc43)N=C2C(OC(F)F)=C1 [Example 73, (S)-8-(difluoromethoxy)-5′-iodo-2′,3′-dihydro-3H-spiro[imidazo[1,2-a]pyridine-2,1′-indene]-6-carbonitrile] | 0.135 | 0.542 | ≤ 0.006 |
| Fc1c(C(F)(F)F)ccc2c1CC[C@@]21CN2C=C(C(F)(F)F)C=C(OC(F)F)C2=N1 [Example 74, (S)-8-(difluoromethoxy)-4′-fluoro-5′,6-bis(trifluoromethyl)-2′,3′-dihydro-3H-spiro[imidazo[1,2-a]pyridine-2,1′-indene]] | 0.108 | 0.517 | ≤ 0.01 |
| COc1ccc2c(c1F)CCC[C@@]21CN2C=C(C(F)(F)F)C=C(F)C2=N1 [Example 76, (S)-5′,8-difluoro-6′-methoxy-6-(trifluoromethyl)-3′,4′-dihydro-2′H,3H-spiro[imidazo[1,2-a]pyridine-2,1′-naphthalene]] | 0.175 | 0.777 | 0.049 |
| FC1=CC(C(F)(F)F)=CN2C[C@@]3(CCCc4cc(C(F)(F)F)ccc43)N=C12 [Example 77, (S)-8-fluoro-6,6′-bis(trifluoromethyl)-3′,4′-dihydro-2′H,3H-spiro[imidazo[1,2-a]pyridine-2,1′-naphthalene]] | 0.103 | 0.6 | ≤ 0.003 |
| COC1=CC(C(F)(F)F)=CN2C[C@@]3(CCCc4c3ccc(Br)c4F)N=C12 [Example 80, (S)-6′-bromo-5′-fluoro-8-methoxy-6-(trifluoromethyl)-3′,4′-dihydro-2′H,3H-spiro[imidazo[1,2-a]pyridine-2,1′-naphthalene]] | 0.106 | 2.04 | 0.011 |
| Fc1ccc2c(c1Cl)CCC[C@@]21CN2C=C(C(F)(F)F)C=C(OC(F)F)C2=N1 [Example 82, (5)-5′-chloro-8-(difluoromethoxy)-6′-fluoro-6-(trifluoromethyl)-3′,4′-dihydro-2′H,3H-spiro[imidazo[1,2-a]pyridine-2,1′-naphthalene]] | 0.039 | 0.155 | ≤ 0.003 |
| Fc1c(Br)ccc2c1[C@@H](F)[C@H](F)C[C@@]21CN2C=C(C(F)(F)F)C=C(OC(F)F)C2=N1 [Example 83, (2S,3′R,4′R)-6′-bromo-8-(difluoromethoxy)-3′,4′,5′-trifluoro-6-(trifluoromethyl)-3′,4′-dihydro-2′H,3H-spiro[imidazo[1,2-a]pyridine-2,1′-naphthalene]] | 0.03 | 0.027 | 0.009 |
| COc1ccc2c(c1F)CCC[C@@]21CN2C=C(C(F)(F)F)C=C(OC(F)F)C2=N1 [Example 84, (S)-8-(difluoromethoxy)-5′-fluoro-6′-methoxy-6-(trifluoromethyl)-3′,4′-dihydro-2′H,3H-spiro[imidazo[1,2-a]pyridine-2,1′-naphthalene]] | 0.069 | 0.184 | 0.003 |
| Fc1ccc2c(c1F)CCC[C@@]21CN2C=C(C(F)(F)F)C=C(OC(F)F)C2=N1 [Example 85, (S)-8-(difluoromethoxy)-5′,6′-difluoro-6-(trifluoromethyl)-3′,4′-dihydro-2′H,3H-spiro[imidazo[1,2-a]pyridine-2,1′-naphthalene]] | 0.071 | 0.204 | 0.004 |
